Laboratory results as given in PubChem BioAssay (NCI).
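Cultured in 96-well plates, cells were exposed to test compound for 48 hours across five concentrations. TGI marks complete inhibition of growth.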

What was measured:
Test in all cases: NCI tumour cell line growth inhibition, 48 h
[1] = tested on: LOX IMVI melanoma
[2] = tested on: MCF7 breast
[3] = tested on: HT29 colon
[4] = tested on: SR leukemia
[5] = tested on: T-47D breast
[6] = tested on: SNB-19 CNS
[7] = tested on: HCT-15 colon
[8] = tested on: UO-31 renal
[9] = tested on: SK-MEL-28 melanoma
[10] = tested on: HL-60(TB) leukemia
[11] = tested on: IGROV1 ovarian

SMILES | TGI [1] [µM] | TGI [2] [µM] | TGI [3] [µM] | TGI [4] [µM] | TGI [5] [µM] | TGI [6] [µM] | TGI [7] [µM] | TGI [8] [µM] | TGI [9] [µM] | TGI [10] [µM] | TGI [11] [µM]
CC1OC(OC2C(O)COC(OC3C(C)OC(OC4C(OC(=O)[C@]56CCC(C)(C)C[C@@H]5C5=CCC7[C@@]8(C)C[C@H](O)[C@H](OC9OC(CO)C(O)C(O)C9O)[C@@](C)(CO)[C@@H]8CC[C@@]7(C)[C@]5(C)CC6)OCC(O)C4O)C(O)C3O)C2O)C(O)C(O)C1O (stereo partly specified) | 46 | > 100 | 48.8 | 46.9 | 47.4 | 38.7 | 50.8 | 28.4 | 32.2 |  | 
COc1ccc2[nH]cc(CCNC(=O)[C@H](Cc3ccc(O)cc3)NC(=O)[C@@H](NCC(F)(F)F)C(C)C)c2c1 | > 100 | > 100 | > 100 | > 100 |  | > 100 | > 100 | > 100 | > 100 | > 100 | > 100
O=[N+]([O-])c1ccc(-c2csc(N=Nc3c(O)[nH]c4ccccc34)n2)cc1 | > 100 | > 100 | 76.6 |  | > 100 | > 100 | 30.1 | 39.2 | > 100 |  | 57.9
C(=N\c1nc2cc3sc(/N=C/c4ccccc4)nc3cc2s1)/c1ccccc1 | > 100 | > 100 | > 100 | > 100 | > 100 | > 100 | > 100 | > 100 | > 100 |  | > 100
OC1NC2Nc3ccccc3NC2NC1O (stereo unspecified) | > 100 | > 100 | > 100 | > 100 | > 100 | > 100 | > 100 |  | > 100 | > 100 | > 100
CCOC(=O)C(NC(=O)c1cccc(Cl)c1)(Nc1ccc(S(=O)(=O)Nc2cc(C)on2)cc1)C(F)(F)F (stereo unspecified) | > 100 | > 100 | > 100 |  | > 100 | > 100 | > 100 | > 100 | > 100 | > 100 | > 100
Cc1cc(N(CCC#N)CCC#N)ccc1/C(N=Nc1ccc([N+](=O)[O-])cc1)=N\NC(=O)c1cc(Cl)ccc1O |  | > 100 | > 100 | > 100 | 97.9 | > 100 | > 100 | 56.8 |  |  | > 100
COC(=O)C(Cc1c[nH]c2ccccc12)NC(=O)C(Cc1cnc[nH]1)NC(=O)C1CCC(=O)N1C(=O)OCc1ccccc1 (stereo unspecified) |  | > 100 | > 100 | > 100 | > 100 | > 100 |  | > 100 | > 100 | > 100 | > 100
Cc1nc2c(c(N3CCN(C)CC3)n1)Cc1ccccc1-2 |  | > 100 | > 100 |  | > 100 | 74.6 | > 100 | 62.8 |  | > 100 | 
S=P1(Sc2ccccc2)Oc2ccc3ccccc3c2-c2c(ccc3ccccc23)O1 | > 100 | > 100 | > 100 |  |  | > 100 | > 100 | > 100 | > 100 | > 100 | > 100
O=C(Cc1ccc2ccccc2c1)NCc1ccc(C(=O)NCCc2ccccc2)cc1 | > 100 | > 100 | > 100 | > 100 | > 100 | > 100 | > 100 | > 100 | > 100 |  | > 100
